Results on seven compounds are retold here after ChEMBL document CHEMBL1201862, “PubChem BioAssay data set” (2004).

Experiment [1] concerns the target Delta-type opioid receptor (Homo sapiens, UniProt P41143). Nature of the experiment: Counterscreen for agonists of heterodimerization of the mu 1 (OPRM1) and delta 1 (OPRD1) opioid receptors: Luminescence-based cell-based high throughput dose response assay to identify agonists of OPRD1 homodimerization. [Related pubchem assays (depositor defined):AID504326, AID504355, AID504692, AID504904, AID504905]. The experiment is classed as functional. Background: The purpose of a counterscreen is to sort out artefacts and off-target activity.

A further experiment has as its target Mu-type opioid receptor (Homo sapiens, UniProt P35372). Kind of experiment: Counterscreen for agonists of heterodimerization of the mu 1 (OPRM1) and delta 1 (OPRD1) opioid receptors: Luminescence-based cell-based high throughput dose response assay to identify agonists of OPRM1 homodimerization. Type of experiment: functional.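 Further: U2OS cells expressing OPRM1 and beta-arrestin as split beta-galactosidase partners.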
Experiment [2] deals with 5-hydroxytryptamine receptor 5A (Homo sapiens, UniProt P47898). Kind of experiment: Counterscreen for agonists of OPRM1-OPRD1 heterodimerization: luminescence-based cell-based high throughput dose response assay to identify agonists of 5-hydroxytryptamine (serotonin) 5A receptor (HTR5A). [Related pubchem assays (depositor defined):AID504326, AID504355, AID504692, AID504904, AID504905]. Type of experiment: functional.
5-hydroxytryptamine receptor 5A, sequence (P47898 whole entry): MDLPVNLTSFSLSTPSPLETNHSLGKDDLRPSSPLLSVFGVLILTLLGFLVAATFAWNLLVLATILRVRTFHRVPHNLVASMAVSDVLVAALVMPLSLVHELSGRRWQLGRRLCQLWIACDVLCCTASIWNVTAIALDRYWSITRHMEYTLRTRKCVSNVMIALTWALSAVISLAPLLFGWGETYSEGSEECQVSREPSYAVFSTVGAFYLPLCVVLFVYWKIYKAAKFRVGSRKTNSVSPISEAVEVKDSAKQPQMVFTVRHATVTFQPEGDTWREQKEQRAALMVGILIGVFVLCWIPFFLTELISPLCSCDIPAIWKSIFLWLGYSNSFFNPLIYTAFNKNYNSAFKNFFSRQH

Experiment [3] has as its target T1, Short transient receptor potential channel 4 (Mus musculus, UniProt Q9QUQ5).
T1 sequence (Q9QUQ5 whole entry): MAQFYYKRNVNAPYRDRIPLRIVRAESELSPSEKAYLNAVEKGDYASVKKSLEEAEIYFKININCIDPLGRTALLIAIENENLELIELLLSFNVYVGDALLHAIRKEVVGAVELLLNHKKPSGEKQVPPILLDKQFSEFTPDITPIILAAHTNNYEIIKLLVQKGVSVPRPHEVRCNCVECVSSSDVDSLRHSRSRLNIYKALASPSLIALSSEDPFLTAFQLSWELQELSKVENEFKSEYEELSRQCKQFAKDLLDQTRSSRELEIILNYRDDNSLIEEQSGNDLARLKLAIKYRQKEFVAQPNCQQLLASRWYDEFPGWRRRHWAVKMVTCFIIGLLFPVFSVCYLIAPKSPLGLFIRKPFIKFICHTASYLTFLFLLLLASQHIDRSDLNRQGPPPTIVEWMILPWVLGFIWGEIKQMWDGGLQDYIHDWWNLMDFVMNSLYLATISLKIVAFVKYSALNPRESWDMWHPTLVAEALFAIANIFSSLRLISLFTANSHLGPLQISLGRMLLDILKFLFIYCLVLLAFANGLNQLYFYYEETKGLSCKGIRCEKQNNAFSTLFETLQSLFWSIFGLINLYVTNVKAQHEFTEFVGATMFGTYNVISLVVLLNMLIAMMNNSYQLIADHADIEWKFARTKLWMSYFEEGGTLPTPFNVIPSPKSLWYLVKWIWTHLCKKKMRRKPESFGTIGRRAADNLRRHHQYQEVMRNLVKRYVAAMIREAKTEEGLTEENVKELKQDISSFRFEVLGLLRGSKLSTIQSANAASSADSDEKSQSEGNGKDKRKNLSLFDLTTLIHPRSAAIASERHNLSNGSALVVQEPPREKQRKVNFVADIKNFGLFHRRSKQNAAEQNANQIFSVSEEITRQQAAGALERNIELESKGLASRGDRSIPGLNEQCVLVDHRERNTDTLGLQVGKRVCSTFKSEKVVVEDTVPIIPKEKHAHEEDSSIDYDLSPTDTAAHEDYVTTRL
Kind of experiment: calcium entry via TRPC4 opening agents – cell-based, HEK293 TRPC4/mu-opioid, Fluo-4 calcium, dose response (AID 434937). The experiment is classed as functional.

A further experiment has as its system HeLa. Kind of experiment: ATP-based viability loss in HeLa cells – cell-based, CellTiter-Glo luminescence, cherry-pick samples, cytotoxicity control for MITF activator project, dose response (AID 540259). The experiment is classed as functional. The note with it: Homo sapiens. (Cellular ATP, detected with luciferase, serves as a proxy for viable cell number.)

Experiment [4] is described as follows: Luminescence Cell-Based Dose Response HTS to Identify Activators of Luciferase Translation or Activity in H4 […] Cells. [Related pubchem assays: 1829 (Project Summary), 1814 (Primary HTS)]. The experiment is classed as functional.
A further experiment relates to H4. Kind of experiment: Luminescence Cell-Based Dose Response HTS to Identify Activators of 5'UTR Stem-Loop Driven Prion Protein mRNA Translation in H4 Neuroglioblastoma Cells. [Related pubchem assays: 1829 (Project Summary), 1814 (Primary HTS)]. The experiment is classed as functional. As to conditions: Homo sapiens.
The nature of experiment [5]: microbe, parasite or virus in culture. Type of experiment: functional. As to conditions: Mycobacterium tuberculosis.
The target in experiment [6] is T2, Replicative DNA helicase DnaB (Mycobacterium tuberculosis, UniProt P9WMR3).
T2 sequence (P9WMR3 whole entry): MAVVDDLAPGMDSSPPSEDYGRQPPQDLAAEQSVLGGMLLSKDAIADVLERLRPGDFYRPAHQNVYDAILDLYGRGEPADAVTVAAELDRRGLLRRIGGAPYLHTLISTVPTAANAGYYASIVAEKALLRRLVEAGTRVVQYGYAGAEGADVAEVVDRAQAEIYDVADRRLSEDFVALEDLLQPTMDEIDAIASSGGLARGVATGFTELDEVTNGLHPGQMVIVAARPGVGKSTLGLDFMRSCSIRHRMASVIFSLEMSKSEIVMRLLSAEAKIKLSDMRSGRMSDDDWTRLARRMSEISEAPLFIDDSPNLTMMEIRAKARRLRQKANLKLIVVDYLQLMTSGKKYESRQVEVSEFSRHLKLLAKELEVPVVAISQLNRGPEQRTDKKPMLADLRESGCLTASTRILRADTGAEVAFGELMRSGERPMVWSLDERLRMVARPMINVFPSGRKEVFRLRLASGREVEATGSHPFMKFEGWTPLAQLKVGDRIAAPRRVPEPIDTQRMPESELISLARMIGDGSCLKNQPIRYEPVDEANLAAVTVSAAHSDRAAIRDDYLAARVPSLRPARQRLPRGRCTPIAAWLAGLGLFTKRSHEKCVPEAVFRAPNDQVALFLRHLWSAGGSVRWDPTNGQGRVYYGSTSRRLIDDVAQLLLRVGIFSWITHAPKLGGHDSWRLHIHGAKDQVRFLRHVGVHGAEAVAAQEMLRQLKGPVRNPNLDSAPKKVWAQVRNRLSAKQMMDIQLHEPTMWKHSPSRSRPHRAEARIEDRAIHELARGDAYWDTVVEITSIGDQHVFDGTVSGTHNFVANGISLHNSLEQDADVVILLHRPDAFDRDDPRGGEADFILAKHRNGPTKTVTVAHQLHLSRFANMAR
Kind of experiment: DnaB intein splicing inhibitors, dose response, biochemical, cell-free fluorescence (AID 449749). The experiment is classed as functional.

Experiment [7] has as its system Vero. Nature of the experiment: viability of Vero cells under compound – cytotoxicity control for flavivirus capping enzyme inhibitors (AID 588742). Type of experiment: functional. As to conditions: Chlorocebus sabaeus.
Experiment [8] concerns Vero. Nature of the experiment: cells. Type of experiment: functional, cell-based. As to conditions: Chlorocebus sabaeus.
Another experiment has as its target T3, Protein RecA (Mycobacterium tuberculosis, UniProt P9WHJ3).
T3 sequence (P9WHJ3 whole entry): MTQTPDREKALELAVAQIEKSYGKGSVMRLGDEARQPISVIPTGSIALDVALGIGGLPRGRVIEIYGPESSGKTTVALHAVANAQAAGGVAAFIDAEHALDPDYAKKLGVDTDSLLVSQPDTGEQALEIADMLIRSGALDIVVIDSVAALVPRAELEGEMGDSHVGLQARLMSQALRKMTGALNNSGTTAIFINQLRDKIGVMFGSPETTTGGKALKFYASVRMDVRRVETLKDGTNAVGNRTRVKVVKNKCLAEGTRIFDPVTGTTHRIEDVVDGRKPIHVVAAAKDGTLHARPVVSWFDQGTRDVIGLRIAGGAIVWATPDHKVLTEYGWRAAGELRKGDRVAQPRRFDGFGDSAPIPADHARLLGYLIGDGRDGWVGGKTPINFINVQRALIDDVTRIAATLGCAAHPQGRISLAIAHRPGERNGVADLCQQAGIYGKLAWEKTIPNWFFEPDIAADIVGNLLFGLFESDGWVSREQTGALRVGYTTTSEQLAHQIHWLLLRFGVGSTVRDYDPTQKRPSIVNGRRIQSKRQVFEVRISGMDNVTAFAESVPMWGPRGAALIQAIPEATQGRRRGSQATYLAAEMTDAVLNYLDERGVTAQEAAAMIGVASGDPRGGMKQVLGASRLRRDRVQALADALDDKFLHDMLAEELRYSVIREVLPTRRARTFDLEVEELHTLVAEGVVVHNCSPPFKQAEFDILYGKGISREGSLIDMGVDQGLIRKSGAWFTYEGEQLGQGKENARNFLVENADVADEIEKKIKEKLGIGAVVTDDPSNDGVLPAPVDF
Nature of the experiment: Fluorescence Cell-Free Homogeneous Dose Retest to Identify Inhibitors of RecA-Intein Splicing Activity. [Related pubchem assays (depositor defined):AID2097, AID2223, AID489010, AID492950]. The experiment is classed as functional.

Experiment [9] relates to Vero. Nature of the experiment: cells. Type of experiment: functional. The note with it: Chlorocebus sabaeus.

The source made the active and inactive calls.

Delta-type opioid receptor, sequence (P41143 whole entry): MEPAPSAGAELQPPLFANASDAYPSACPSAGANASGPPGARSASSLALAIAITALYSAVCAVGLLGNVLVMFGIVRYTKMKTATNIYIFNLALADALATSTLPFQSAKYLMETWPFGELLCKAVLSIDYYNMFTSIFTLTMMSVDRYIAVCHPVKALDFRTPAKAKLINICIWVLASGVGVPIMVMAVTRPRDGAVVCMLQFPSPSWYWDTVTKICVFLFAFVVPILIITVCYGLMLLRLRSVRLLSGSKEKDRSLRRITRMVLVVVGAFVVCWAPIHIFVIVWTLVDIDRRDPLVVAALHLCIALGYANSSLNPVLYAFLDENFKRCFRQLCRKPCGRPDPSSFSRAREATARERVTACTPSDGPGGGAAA
Mu-type opioid receptor, sequence (P35372 whole entry): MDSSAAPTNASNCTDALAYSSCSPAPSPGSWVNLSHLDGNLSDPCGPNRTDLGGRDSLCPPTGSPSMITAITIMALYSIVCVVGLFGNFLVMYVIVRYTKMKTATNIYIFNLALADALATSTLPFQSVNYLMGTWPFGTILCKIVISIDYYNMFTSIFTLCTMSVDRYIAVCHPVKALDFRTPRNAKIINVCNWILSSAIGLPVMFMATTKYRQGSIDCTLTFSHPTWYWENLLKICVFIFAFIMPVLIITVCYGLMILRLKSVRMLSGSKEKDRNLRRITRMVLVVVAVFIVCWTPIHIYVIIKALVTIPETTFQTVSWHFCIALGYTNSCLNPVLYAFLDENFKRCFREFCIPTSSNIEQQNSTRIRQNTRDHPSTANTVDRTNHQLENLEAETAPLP

In general, EC50 refers to the concentration that produces a half-maximal response. Consider `COc1cc(NC(=O)c2cccc(C)c2)ccc1NC(=O)c1cc2ccccc2o1`, for which the EC50 (in experiment [1]; at Mu-type opioid receptor; in [2]) was > 92.4 µM (inactive) each time.
With `Cc1cc(C)cc(C(=O)N(CCc2ccccc2)C2=CC3CCC(C2)N3C)c1` (configuration not stated), the EC50 in experiment [3] is 0.267 µM (active); in experiment [1], > 92.5 µM (inactive); at Mu-type opioid receptor, 43.9 µM (inactive); in [2], > 92.5 µM (inactive).
The AC50 is the concentration giving half of the maximal activity seen. Take `COc1cc(OC)c2c(-c3cccc(/C=C/c4ccc(F)cc4)c3)cc(=O)oc2c1`: the AC50 with HeLa was 165 µM (active).
On the same count and under the same terms, to `O=S(=O)(Cc1cc(-c2ccccc2Cl)no1)c1ccccc1` belongs 51.8 µM (active).
For the compound `Clc1cnc(N/N=C/c2cccs2)c(Cl)c1`, the EC50 in experiment [4] is 0.411 µM (active); with H4, 0.136 µM (active). In the experiment on HeLa, the AC50 is 62.4 µM (active).
With `CN(C)C(CNC(=O)C1CC(=O)N(Cc2ccccc2)C1)c1ccccc1` (configuration not stated), the EC50 is 1.33 µM (active) in experiment [3], > 92.5 µM (inactive) in [1], > 92.5 µM (inactive) at Mu-type opioid receptor and > 92.5 µM (inactive) in experiment [2].
As usually defined, the IC50 is the point on the concentration scale where inhibition reaches its midpoint. On to `Oc1cc(N=Nc2ccc(Cl)cc2)nc(O)n1`, for which the CC50 in experiment [5] was 8.44 µM (active); in the experiment on Vero [7] it was 14.8 µM (active); in the experiment on Vero [9], > 25 µM (active). Besides, the AC50 in experiment [6] is 2.37 µM (active). In the experiment on Vero [8], the half-maximal inhibitory concentration (IC50) is 21.9 µM (active). Besides, the EC50 on Protein RecA is 1.2 µM (active).
